Reference: ChEMBL document CHEMBL1201862, “PubChem BioAssay data set” (2004)
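1) Cells in 96-well plates. 2) Compound, 48 h, 5 concentrations. 3) Linear interpolation between surrounding doses. 4) Unreached endpoint = highest concentration. GI50 is the concentration that inhibits growth by half.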 Active and inactive are the calls of the source. Cut-off read from the data, not from the text of the source: active = GI50 up to about 1.1 µM and inactive = higher.

What was measured:
Experiment in all cases: DTP human tumour cell line panel, 48 h
[1] = test system: CAKI-1
[2] = test system: MDA-N
[3] = test system: UACC-62
[4] = test system: SK-MEL-2
[5] = test system: OVCAR-4
[6] = test system: IGROV-1
[7] = test system: SK-MEL-5
[8] = test system: SNB-75
[9] = test system: LOX IMVI
[10] = test system: EKVX
[11] = test system: U-251
[12] = test system: HT-29
[13] = test system: CCRF-CEM
[14] = test system: RXF 393
[15] = test system: NCI-H226
[16] = test system: OVCAR-5
[17] = test system: 786-0
[18] = test system: MOLT-4
[19] = test system: SF-539
[20] = test system: HOP-92

Row | SMILES | GI50 [1] | GI50 [2] | GI50 [3] | GI50 [4] | GI50 [5] | GI50 [6] | GI50 [7] | GI50 [8] | GI50 [9] | GI50 [10] | GI50 [11] | GI50 [12] | GI50 [13] | GI50 [14] | GI50 [15] | GI50 [16] | GI50 [17] | GI50 [18] | GI50 [19] | GI50 [20]
1 | CCc1n[nH]c(=O)n1N1C(=O)CCC1=O | > 100 µM (inactive) | > 100 µM (inactive) | > 100 µM (inactive) | > 100 µM (inactive) | > 100 µM (inactive) | > 100 µM (inactive) | > 100 µM (inactive) | > 100 µM (inactive) | > 100 µM (inactive) | > 100 µM (inactive) | > 100 µM (inactive) | > 100 µM (inactive) | > 100 µM (inactive) | > 100 µM (inactive) | > 100 µM (inactive) | > 100 µM (inactive) | > 100 µM (inactive) | > 100 µM (inactive) |  | 
2 | COc1c(-c2ccccc2)oc2c(CP(=O)(OC)OC)cccc2c1=O | 2.12 µM (inactive) | > 100 µM (inactive) | > 100 µM (inactive) | > 100 µM (inactive) |  | > 100 µM (inactive) | > 100 µM (inactive) |  |  | > 100 µM (inactive) | > 100 µM (inactive) |  | 94.4 µM (inactive) | > 100 µM (inactive) |  | > 100 µM (inactive) | > 100 µM (inactive) | > 100 µM (inactive) | > 100 µM (inactive) | 
3 | CN(CCN1C(=O)c2cc([N+](=O)[O-])cc3cc([N+](=O)[O-])cc(c23)C1=O)CCN1C(=O)c2cc([N+](=O)[O-])cc3cc([N+](=O)[O-])cc(c23)C1=O | 0.322 µM (active) |  | 0.811 µM (active) | 0.764 µM (active) | 0.524 µM (active) | 0.347 µM (active) | 1.21 µM (inactive) | 0.695 µM (active) | 0.248 µM (active) | 4.26 µM (inactive) | 0.375 µM (active) | 0.272 µM (active) | 0.0524 µM (active) | 0.238 µM (active) | 0.778 µM (active) | 1.69 µM (inactive) | 0.455 µM (active) | 0.0485 µM (active) | 0.399 µM (active) | 0.252 µM (active)
4 | O=c1[nH]c2cc([N+](=O)[O-])c(Nc3c4ccccc4nc4ccccc34)c([N+](=O)[O-])c2[nH]1 | 2.19 µM (inactive) |  | 1.6 µM (inactive) | 2.72 µM (inactive) | 3.07 µM (inactive) | 0.238 µM (active) | 2.45 µM (inactive) | 3.68 µM (inactive) | 2.37 µM (inactive) | 2.47 µM (inactive) | 3.58 µM (inactive) | 1.98 µM (inactive) | 4.42 µM (inactive) | 2.42 µM (inactive) | 3.13 µM (inactive) | 2.4 µM (inactive) | 2.39 µM (inactive) | 0.938 µM (active) | 3.28 µM (inactive) | 2.48 µM (inactive)
5 | COc1cc2c(cc1C)[n+]([O-])c(C)c(C(=O)C/C(=N/NC(=O)C[N+](C)(C)C)C(=O)Nc1cccc(Cl)c1C)[n+]2[O-] | > 100 µM (inactive) |  | > 100 µM (inactive) | > 100 µM (inactive) | > 100 µM (inactive) | > 100 µM (inactive) | > 100 µM (inactive) | > 100 µM (inactive) | > 100 µM (inactive) | > 100 µM (inactive) | > 100 µM (inactive) | > 100 µM (inactive) | 49.9 µM (inactive) | > 100 µM (inactive) | > 100 µM (inactive) | > 100 µM (inactive) | > 100 µM (inactive) | > 100 µM (inactive) | > 100 µM (inactive) | > 100 µM (inactive)
